Test results taken from article PMC12040169 (PLOS Biology, 2025).

Experiment: in vitro
Conditions: human, hela cells, % viability

## CC(C)(CN1CCCC1)NC(=O)N1CCN(Cc2cccc(O)c2)CC1 [CBK307380]
  viability at 28.5 h, 10 µM: 86.6%

## CC(C)N(C(=O)N1CCC2(CC1)CC(=O)c1ccccc1O2)C(C)C [CBK284010]
  viability at 28.5 h, 10 µM: 90.7%

## O=C(c1ccccc1F)N1CCC(c2n[nH]c3ncccc23)CC1 [CBK284903]
  viability at 28.5 h, 10 µM: 91.7%

## CCOC(=O)Cn1c(CCC(=O)O)ccc1-c1ccc(F)cc1 [CBK265916]
  viability at 28.5 h, 10 µM: 97.8%

## Oc1cc(C(F)(F)F)nc(NCc2cccc3ccccc23)n1 [CBK003716]
  viability at 28.5 h, 10 µM: 92.7%

## CCN(CC)CCN1C(=O)C(O)=C(C(=O)c2ccc3c(c2)OCO3)C1c1cccnc1 (stereo not drawn) [CBK266465]
  viability at 28.5 h, 10 µM: 99.6%

## COc1ccc(N2CCN(c3cncc(-c4cccc(N)c4)n3)CC2)cc1OC [CBK066126]
  viability at 28.5 h, 10 µM: 94.3%

## Cc1ccc2nc3c(cc(C(=O)NC4CCCC4)c(=N)n3Cc3ccco3)c(=O)n2c1 [CBK265242]
  viability at 28.5 h, 10 µM: 81%

## CCCNC(=O)N1CCCC(Cc2ccc(F)cc2F)(C(=O)OCC)C1 (stereo not drawn) [CBK307031]
  viability at 28.5 h, 10 µM: 94.2%

## Cc1cccnc1C(NC(=O)C1CCN(Cc2ccoc2)CC1)c1ccc(Cl)cc1 (stereo not drawn) [CBK148227]
  viability at 28.5 h, 10 µM: 102%

## OCCOc1ccccc1-c1nnco1 [CBK001972]
  viability at 28.5 h, 10 µM: 92.6%

## Clc1ccc(-c2c[nH]c([C@@H]3COCCN3Cc3csnn3)n2)cc1 [CBK289309]
  viability at 28.5 h, 10 µM: 87.1%

## COc1cc(C(=O)Nc2ncccc2OCCCC#N)ccc1C [CBK304568]
  viability at 28.5 h, 10 µM: 85.7%

## CCn1c(C)nc2cc(Cl)c(Cl)cc21 [CBK115577]
  viability at 28.5 h, 10 µM: 89.3%

## CN(C)CCN/C=C1/C(=O)NC(=S)N(c2ccccc2Cl)C1=O [CBK261826]
Bulk resorufin, single well
  viability at 28.5 h, 10 µM: 86.4%

## O=C(O)CCC(=O)N1N=C2C(=Cc3cccc([N+](=O)[O-])c3)CCCC2C1c1cccc([N+](=O)[O-])c1 (stereo not drawn) [CBK296071]
  viability at 28.5 h, 10 µM: 122%

## O=C1CCc2cccc(OCCOc3nccnc3N3CCNCC3)c21 [CBK200001G]
  viability at 28.5 h, 10 µM: 101%

## COc1ccc(-c2cnc(NS(C)(=O)=O)c(C(=O)Nc3cc(C)nn3C)c2)cc1 [CBK076528]
  viability at 28.5 h, 10 µM: 88.2%

## O=C(NNc1ccccc1)c1c(O)c2ccccc2oc1=O [CBK260878]
  viability at 28.5 h, 10 µM: 75.1%

## CCOc1cc(OCC)cc(C(=O)Nc2ccc(-c3nc4ncccc4o3)cc2)c1 [CBK263440]
  viability at 28.5 h, 10 µM: 96.8%

## O=C(O)c1nn(-c2ccccc2)c2cc([N+](=O)[O-])ccc12 [CBK006532]
  viability at 28.5 h, 10 µM: 95%

## COC(=O)[C@H]1CN(C(=O)c2cnn(C)c2C)C[C@@H]1c1ccc(F)cc1 [CBK283721]
  viability at 28.5 h, 10 µM: 84.5%

## CCc1cnc(CNC(=O)NCc2nc3cc(C)ccc3n2C)s1 [CBK306261]
  viability at 28.5 h, 10 µM: 98.9%

## Cc1cnn(CC(=O)N2CCCC(COc3ccccc3F)C2)c1 (stereo not drawn) [CBK281999]
  viability at 28.5 h, 10 µM: 102%

## C#CCNC(=O)C1CCCN(c2nc3ccccc3n2CC)C1 (stereo not drawn) [CBK282433]
  viability at 28.5 h, 10 µM: 90.5%

## CC(=O)N1c2ccccc2C(C)(c2ccc(Br)cc2)CC1(C)C (stereo not drawn) [CBK026461]
  viability at 28.5 h, 10 µM: 95.8%

## NC(=O)c1ccc(NC(=O)c2cncc(-c3ccc(C(=O)N4CCOCC4)cc3)c2)cc1 [CBK160214]
  viability at 28.5 h, 10 µM: 106%

## Cc1ccc(C2(CNC(=O)CCc3ccncc3)CCOCC2)cc1 [CBK281574]
  viability at 28.5 h, 10 µM: 93.7%

## CCOC(=O)c1[nH]c2ccccc2c1NC(=O)COc1ccc(Cl)cc1Cl [CBK160134]
  viability at 28.5 h, 10 µM: 102%

## CC(C)(O)C#Cc1ccc(C(=O)N2CCCC2C(=O)O)s1 (stereo not drawn) [CBK286869]
  viability at 28.5 h, 10 µM: 79.5%

## c1ncc(N2CCCC2)nc1OC1CCOC1 (stereo not drawn) [CBK115893]
  viability at 28.5 h, 10 µM: 91.3%

## N#CC1(c2ccccc2)CCN(C(=O)c2ccccc2C(=O)c2ccccc2)CC1 [CBK091396]
Bulk resorufin, single well
  viability at 28.5 h, 10 µM: 107%

## CN(C)CC(=O)N1c2ccccc2CCc2ccc(NC(=O)c3ccccc3)cc21 [CBK261289C]
  viability at 28.5 h, 10 µM: 94.2%

## CN(C)S(=O)(=O)c1ccc(C(=O)C2=C(O)C(=O)N(Cc3cccnc3)C2c2ccc(F)cc2)cc1 (stereo not drawn) [CBK264715]
  viability at 28.5 h, 10 µM: 94%

## O=[N+]([O-])c1ccc(CN2CCN(c3nccnc3OCCN3CCOCC3)CC2)cc1 [CBK082892T]
  viability at 28.5 h, 10 µM: 99.8%

## O=C(c1ccccn1)C1CCCN(c2nccc(CCC(F)(F)F)n2)C1 (stereo not drawn) [CBK306775]
  viability at 28.5 h, 10 µM: 109%

## O=C(c1cncs1)N1CCn2nc(C(O)Cc3ccccc3)cc2C1 (stereo not drawn) [CBK306754]
  viability at 28.5 h, 10 µM: 90.6%

## O=C(N1CCC(c2ccncc2)CC1)C1(c2ccccc2)CC1 [CBK285480]
  viability at 28.5 h, 10 µM: 102%

## O=C(O)c1cccc(/N=C/c2ccc(/C=N/c3cccc(C(=O)O)c3)cc2)c1 [CBK261088]
  viability at 28.5 h, 10 µM: 92.3%

## CCOCc1nc2c(c(NCc3cc(C)on3)n1)CCN(C(C)=O)CC2 [CBK307512]
  viability at 28.5 h, 10 µM: 87.4%

## O=C(CCn1c(C(F)(F)F)cc2cccnc21)N1CCC(O)CC1 [CBK284887]
  viability at 28.5 h, 10 µM: 89.7%

## O=C(C1CC2C=CC1C21CC1)N1CCN(Cc2ccccn2)CC1 (stereo not drawn) [CBK281443]
  viability at 28.5 h, 10 µM: 86.3%

## O=C(C1CCCC1)N1CCC(c2cccc(Cc3ccccc3Cl)n2)CC1 [CBK286507]
  viability at 28.5 h, 10 µM: 87.6%

## O=C(CCS(=O)(=O)c1ccccc1)Nc1c(F)cc(F)cc1OC1CCNCC1 [CBK050226T]
  viability at 28.5 h, 10 µM: 87.4%

## Cc1nn(C)cc1-c1cncn1CCCn1ccnc1C(C)C [CBK281972]
  viability at 28.5 h, 10 µM: 81.6%

## O=C(O)c1ccc(N(Cc2ccccc2)S(=O)(=O)c2ccccc2)cc1 [CBK265375N]
  viability at 28.5 h, 10 µM: 92.8%

## COc1ccc(Nc2nc(N)nc(CN3CC(C)CC(C)C3)n2)cc1 (stereo not drawn) [CBK288154]
  viability at 28.5 h, 10 µM: 99.2%

## FC(F)(F)c1cccc(OCCCc2ccncc2)n1 [CBK115795]
  viability at 28.5 h, 10 µM: 98.8%

## CSCCC(=O)Nc1cc(C)nc2ccccc12 [CBK122729]
  viability at 28.5 h, 10 µM: 108%

## CCOC(=O)Cn1[nH]c(COC(C)(C)C)c(Cc2c(Cl)cccc2Cl)c1=O [CBK103551]
  viability at 28.5 h, 10 µM: 114%

## Cc1ccc(C(=O)Nc2nc3ccc(S(=O)(=O)N(C)C)cc3s2)cc1 [CBK287603]
  viability at 28.5 h, 10 µM: 93.1%

## O=C(NCc1ccc2occc2c1)C1(c2ccccc2)CCCC1 [CBK149525]
  viability at 28.5 h, 10 µM: 116%

## Fc1cccc(-c2cncc(NCCc3c[nH]c4ccccc34)n2)c1 [CBK065288]
  viability at 28.5 h, 10 µM: 94.7%

## CCOC(=O)N[C@@H](CC1CCCCC1)C(=O)NCCc1ccc(S(N)(=O)=O)cc1 [CBK015131]
  viability at 28.5 h, 10 µM: 106%

## O=C(Nc1ccc2oc(-c3cccnc3)nc2c1)c1ccc(-c2ccccc2OC(F)(F)F)o1 [CBK263872]
  viability at 28.5 h, 10 µM: 86.5%

## COc1ncc(-c2ccc(NCC(C)C)nc2)c(OC)n1 [CBK036934]
  viability at 28.5 h, 10 µM: 116%

## CCOC(=O)C1(C2CCCCC2)CCN(C(=O)c2ccc(OC(F)(F)F)cc2)CC1 [CBK136921]
  viability at 28.5 h, 10 µM: 96.2%

## CCOC(NC(=O)Nc1ccc(Br)cc1)(C(F)(F)F)C(F)(F)F [CBK027208]
  viability at 28.5 h, 10 µM: 91.2%

## CC1=CC[C@H]2COC(CN3CCOC3C(C)C)[C@@H]1C2 (stereo partly drawn) [CBK019189]
  viability at 28.5 h, 10 µM: 122%

## CC(C)c1nnc(CCC(=O)N2CCC(c3ccccc3)C2)o1 (stereo not drawn) [CBK281925]
  viability at 28.5 h, 10 µM: 89.3%

## COC(=O)c1c(C)[nH]c(C(=O)N2CCCC2c2cccnc2)c1C (stereo not drawn) [CBK296639]
  viability at 28.5 h, 10 µM: 98.8%

## Cc1sc2ncn(CC3(O)CCCNC3)c(=O)c2c1-c1ccc(F)cc1 (stereo not drawn) [CBK307346]
  viability at 28.5 h, 10 µM: 96%

## CCOCc1c(O)ccc2c([N+](=O)[O-])c(C)n(-c3ccc(OC)cc3)c12 [CBK095589]
  viability at 28.5 h, 10 µM: 87.8%

## Cc1cc2cn([C@H]3C[C@@H](O)[C@@H](CO)O3)c(=O)nc2[nH]1 [CBK201302]
  viability at 28.5 h, 10 µM: 100%

## COc1ccc(NC(=O)CCCSc2nc(N)c3c(C)c(C)sc3n2)cc1 [CBK266547]
  viability at 28.5 h, 10 µM: 105%

## Cc1c(-c2ccc(Cl)cc2Cl)nc2ccccc2c1C(=O)NCc1ccc(S(N)(=O)=O)cc1 [CBK265387]
  viability at 28.5 h, 10 µM: 101%

## CCCC(=O)c1ccc(S(=O)(=O)N2CCCN(Cc3c(C)[nH]c(C(=O)OCC)c3C)CC2)cc1 [CBK062947]
  viability at 28.5 h, 10 µM: 101%

## NC1CCC(NC(=O)c2cnc(-c3ccc(Cl)cc3)c(-c3ccco3)c2)CC1 (stereo not drawn) [CBK037563]
  viability at 28.5 h, 10 µM: 105%

## Cc1ccc(N(Cc2cc3cccc(C)c3nc2O)C(=O)c2cccc([N+](=O)[O-])c2)cc1 [CBK265426]
  viability at 28.5 h, 10 µM: 98.2%

## Cn1nc(C2CCCC2)cc1[C@H]1CN2CC[C@H]1C[C@@H]2CNS(C)(=O)=O [CBK288742]
  viability at 28.5 h, 10 µM: 91.5%

## O=C(C1=C(O)C(=O)N(Cc2cccnc2)C1c1cccc([N+](=O)[O-])c1)c1ccccc1 (stereo not drawn) [CBK263383]
  viability at 28.5 h, 10 µM: 107%

## COc1cc(/C=C2/C(=O)N(c3ccc(Cl)c(C(=O)O)c3)N=C2C)ccc1Oc1nc2c(c(=O)n(C)c(=O)n2C)n1C [CBK262962]
  viability at 28.5 h, 10 µM: 91.1%

## O=C(Nc1cccc(Cn2cccn2)c1)c1csc2ccccc12 [CBK268123]
  viability at 28.5 h, 10 µM: 93.2%

## O=C(N/N=C/c1cccc(Oc2ccccc2)c1)c1ccncc1 [CBK261955]
  viability at 28.5 h, 10 µM: 95.6%

## CCc1ccc(C2CC(=O)c3c(ccc4ccccc34)N2)cc1 (stereo not drawn) [CBK098787]
  viability at 28.5 h, 10 µM: 93.8%

## CC1CCCCN1C(=O)CN1C(=O)[C@H]2CCCN2C(=O)c2ccccc21 (stereo partly drawn) [CBK286320]
  viability at 28.5 h, 10 µM: 99.4%

## Cc1nn(CC(=O)NC(C)C)c(=O)c2cc3ccsc3n12 [CBK284027]
  viability at 28.5 h, 10 µM: 83.9%

## O=C1CC2(CCNCC2)Oc2c1ccc1ccccc21 [CBK282714]
  viability at 28.5 h, 10 µM: 93%

## CCC(C)NCc1cccc(Oc2ncccn2)c1 (stereo not drawn) [CBK288090]
  viability at 28.5 h, 10 µM: 106%

## Cc1c(C)n(Cc2ccco2)c2ncnc(SCCC(=O)O)c12 [CBK307569]
  viability at 28.5 h, 10 µM: 105%

## CC(=O)Nc1ccc(S(=O)(=O)N2CCC3(CC2)NC(=O)c2cc(-c4ccoc4)ccc2O3)cc1 [CBK115856]
  viability at 28.5 h, 10 µM: 113%

## CCN1C(=O)c2ccccc2C(=O)[C@@]2(C)CN(C)C[C@@H]12 [CBK283478]
  viability at 28.5 h, 10 µM: 88.3%

## CC(=O)NCCCSCc1cn2cccc(C)c2n1 [CBK304809]
  viability at 28.5 h, 10 µM: 98.5%

## O=C(O)CCCC(=O)NC(Cc1ccccc1)C(=O)Nc1ccc([N+](=O)[O-])cc1 (stereo not drawn) [CBK299806]
  viability at 28.5 h, 10 µM: 84.5%

## CN1CCN(NC(=O)COc2ccc(-c3ccccc3)cc2)CC1 [CBK268117]
  viability at 28.5 h, 10 µM: 89.8%

## Cc1cc(C(=O)Nc2ccc3ncccc3c2)ccc1Cl [CBK159804]
  viability at 28.5 h, 10 µM: 88.8%

## O=C(NCc1ccccn1)/C(=N/O)c1ccccc1 [CBK288472]
  viability at 28.5 h, 10 µM: 114%
